Assay results from patent US20090264384A1, “INDOLE, BENZIMIDAZOLE, AND BENZOLACTAM BORONIC ACID COMPOUNDS, ANALOGS THEREOF AND METHODS OF USE THEREOF” (Nuada, Inc., priority 2004, published 2009).

Tests used:
A1(h) = target: T1, A1(h) (Homo sapiens, UniProt P30542); assay: A1(h) binding assay; conditions: 1.0E−05 M; read-out: % Inhibition of Control Specific Binding
T1 construct: expressed in transfected cells; host or cells: CHO cells

A2A(h) = target: T2, A2A(h) (Homo sapiens, UniProt P29274); assay: A2A(h) binding assay; conditions: 1.0E−05 M
T2 construct: expressed in transfected cells; host or cells: HEK-293 cells

A3(h) = target: T3, A3(h) (Homo sapiens, UniProt P0DMS8); assay: A3(h) binding assay; conditions: read-out: % Inhibition of Control Specific Binding
T3 construct: expressed in transfected cells; host or cells: HEK-293 cells

α1 (non-selective) = α1 (non-selective) binding assay; parameters: species or system rat; conditions: 1.0E−05 M
α2 (non-selective) = α2 (non-selective) binding assay; parameters: species or system rat; conditions: 1.0E−05 M
CB2(h) = target: T4, CB2(h) (Homo sapiens, UniProt P34972); assay: CB2(h) binding assay; conditions: 1.0E−05 M; read-out: % Inhibition of Control Specific Binding
T4 construct: expressed in transfected cells; host or cells: HEK-293 cells

CCKB(h) (CCK2) = target: T5, CCKB(h) (CCK2) (Homo sapiens, UniProt P32239); assay: CCKB(h) (CCK2) binding assay; conditions: read-out: % Inhibition of Control Specific Binding
T5 construct: expressed in transfected cells; host or cells: HEK-293 cells

D1(h) = target: T6, D1(h) (Homo sapiens, UniProt P21728); assay: D1(h) binding assay; conditions: read-out: % Inhibition of Control Specific Binding
T6 construct: expressed in transfected cells; host or cells: CHO cells

D3(h) = target: T7, D3(h) (Homo sapiens, UniProt P35462); assay: D3(h) binding assay; conditions: 1.0E−05 M; read-out: % Inhibition of Control Specific Binding
T7 construct: expressed in transfected cells; host or cells: CHO cells

ETA(h) = target: T8, ETA(h) (Homo sapiens, UniProt P25101); assay: ETA(h) binding assay; conditions: 1.0E−05 M; read-out: % Inhibition of Control Specific Binding
T8 construct: expressed in transfected cells; host or cells: CHO cells

ETB(h) = target: T9, ETB(h) (Homo sapiens, UniProt P24530); assay: ETB(h) binding assay; conditions: read-out: % Inhibition of Control Specific Binding
T9 construct: expressed in transfected cells; host or cells: CHO cells

GABA (non-selective) = type: binding, rat; conditions: 1.0E−05 M
NMDA = NMDA binding assay; parameters: species or system rat; conditions: 1.0E−05 M
I1 (peripheral) = I1 (peripheral) binding assay; parameters: species or system bovine; conditions: 1.0E−05 M
P2X = P2X binding assay; parameters: species or system rat; conditions: 1.0E−05 M
P2Y = P2Y binding assay; parameters: species or system rat; conditions: 1.0E−05 M
Estrogen(h) (ER) = target: T10, Estrogen(h) (ER) (Homo sapiens, UniProt P03372); assay: Estrogen(h) (ER) binding assay; conditions: 1.0E−05 M
T10 construct: Estrogen(h); MCF-7 cells; 17-β-estradiol; Sheen et al. (1985); endogenous in cells; host or cells: MCF-7 cells (cytosol)

TRH = TRH binding assay; parameters: species or system rat; conditions: 1.0E−05 M
[1] = system: Ca^2+ channel (L, verapamil site) (phenylalkylamines); assay: Ca^2+ channel (L, verapamil site) binding assay; parameters: species or system rat; conditions: 1.0E−05 M
K^+V channel = K^+V channel binding assay; parameters: species or system rat; conditions: 1.0E−05 M
Na^+ channel (site 2) = type: binding, rat; conditions: 1.0E−05 M
DA transporter(h) = target: T11, DA transporter(h) (Homo sapiens, UniProt Q01959); assay: DA transporter(h) binding assay; conditions: 1.0E−05 M; read-out: % Inhibition of Control Specific Binding
T11 construct: expressed in transfected cells; host or cells: CHO cells

Choline transporter = target: T12, Choline transporter (Rattus norvegicus, UniProt Q9JMD7); assay: Choline transporter binding assay; conditions: 1.0E−05 M; read-out: % Inhibition of Control Specific Binding
T12 construct: rat striatum; from tissue; host or cells: rat striatum
T12 sequence (Q9JMD7 1-580): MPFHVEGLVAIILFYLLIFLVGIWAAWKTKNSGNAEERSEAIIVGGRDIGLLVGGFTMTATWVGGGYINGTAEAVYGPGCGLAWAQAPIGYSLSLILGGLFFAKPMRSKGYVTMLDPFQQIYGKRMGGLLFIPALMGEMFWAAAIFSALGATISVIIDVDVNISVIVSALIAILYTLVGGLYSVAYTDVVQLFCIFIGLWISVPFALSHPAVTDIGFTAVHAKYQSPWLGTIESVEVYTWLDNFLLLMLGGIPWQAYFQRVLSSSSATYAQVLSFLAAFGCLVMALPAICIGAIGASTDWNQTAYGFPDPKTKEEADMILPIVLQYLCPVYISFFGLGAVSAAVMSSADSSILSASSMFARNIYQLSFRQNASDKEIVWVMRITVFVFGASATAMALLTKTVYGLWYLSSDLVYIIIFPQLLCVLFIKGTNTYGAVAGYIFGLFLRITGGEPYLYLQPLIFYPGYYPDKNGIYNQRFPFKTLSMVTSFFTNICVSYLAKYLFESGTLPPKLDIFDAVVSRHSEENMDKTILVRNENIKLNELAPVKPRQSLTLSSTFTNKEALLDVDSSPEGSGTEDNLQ

5-HT transporter(h) = target: T13, 5-HT transporter(h) (Homo sapiens, UniProt P31645); assay: 5-HT transporter(h) binding assay; conditions: read-out: % Inhibition of Control Specific Binding
T13 construct: expressed in transfected cells; host or cells: HEK-293 cells

Phosphodiesterase 3(h) = Phosphodiesterase 3(h) (Homo sapiens, UniProt Q14432); assay: Phosphodiesterase 3(h) enzyme assay; type: biochemical; conditions: 1.0E−05 M
Acetylcholinesterase(h) = target: T14, Acetylcholinesterase(h) (Homo sapiens, UniProt P22303); assay: Acetylcholinesterase(h) enzyme assay; type: biochemical; conditions: 1.0E−05 M
T14 construct: host or cells: HEK-293 cells

ATPase (Na^+/K^+) = target: T15, ATPase (Na^+/K^+) (Canis lupus familiaris, UniProt P50997); assay: ATPase (Na^+/K^+) enzyme assay; type: biochemical, dog; conditions: 1.0E−05 M
T15 construct: dog kidney; from tissue; host or cells: dog kidney

T2 sequence (P29274 whole entry): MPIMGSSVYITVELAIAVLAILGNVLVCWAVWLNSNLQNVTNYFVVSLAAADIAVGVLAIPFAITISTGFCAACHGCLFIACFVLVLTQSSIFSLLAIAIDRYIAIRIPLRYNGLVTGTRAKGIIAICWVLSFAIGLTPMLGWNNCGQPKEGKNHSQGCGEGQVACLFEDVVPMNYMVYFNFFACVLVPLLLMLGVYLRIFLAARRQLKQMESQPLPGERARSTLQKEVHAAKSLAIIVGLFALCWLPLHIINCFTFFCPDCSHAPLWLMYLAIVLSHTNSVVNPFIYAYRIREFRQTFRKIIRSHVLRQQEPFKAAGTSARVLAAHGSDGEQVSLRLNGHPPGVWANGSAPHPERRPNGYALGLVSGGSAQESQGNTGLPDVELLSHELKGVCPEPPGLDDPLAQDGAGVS
T13 sequence (P31645 whole entry): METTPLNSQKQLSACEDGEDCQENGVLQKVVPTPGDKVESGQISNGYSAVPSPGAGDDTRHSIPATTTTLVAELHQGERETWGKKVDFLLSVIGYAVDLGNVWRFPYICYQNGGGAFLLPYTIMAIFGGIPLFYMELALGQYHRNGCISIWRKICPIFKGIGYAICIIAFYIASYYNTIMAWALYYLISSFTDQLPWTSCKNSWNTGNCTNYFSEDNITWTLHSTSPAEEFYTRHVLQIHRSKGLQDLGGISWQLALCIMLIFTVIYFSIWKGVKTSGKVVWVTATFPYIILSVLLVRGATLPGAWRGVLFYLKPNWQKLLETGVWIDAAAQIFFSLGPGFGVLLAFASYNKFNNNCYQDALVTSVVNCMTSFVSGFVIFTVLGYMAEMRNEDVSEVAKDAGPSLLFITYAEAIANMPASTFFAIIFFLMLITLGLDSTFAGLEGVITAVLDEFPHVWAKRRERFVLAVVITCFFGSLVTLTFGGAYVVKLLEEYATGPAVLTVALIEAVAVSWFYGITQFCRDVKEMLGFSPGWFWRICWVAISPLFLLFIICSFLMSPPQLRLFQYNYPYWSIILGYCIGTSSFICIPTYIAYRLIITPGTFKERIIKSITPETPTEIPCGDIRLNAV
T9 sequence (P24530 27-442): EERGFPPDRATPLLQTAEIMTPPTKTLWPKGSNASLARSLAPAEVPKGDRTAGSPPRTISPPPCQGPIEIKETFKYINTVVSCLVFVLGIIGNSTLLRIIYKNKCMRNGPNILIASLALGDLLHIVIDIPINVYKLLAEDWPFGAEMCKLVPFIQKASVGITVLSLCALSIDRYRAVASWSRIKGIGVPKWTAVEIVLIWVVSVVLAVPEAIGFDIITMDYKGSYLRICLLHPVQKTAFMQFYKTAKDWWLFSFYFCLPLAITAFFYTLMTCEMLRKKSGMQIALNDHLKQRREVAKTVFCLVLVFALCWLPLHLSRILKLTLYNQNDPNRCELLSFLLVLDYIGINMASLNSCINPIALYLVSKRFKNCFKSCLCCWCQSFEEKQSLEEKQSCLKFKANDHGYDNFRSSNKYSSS
T7 sequence (P35462 whole entry): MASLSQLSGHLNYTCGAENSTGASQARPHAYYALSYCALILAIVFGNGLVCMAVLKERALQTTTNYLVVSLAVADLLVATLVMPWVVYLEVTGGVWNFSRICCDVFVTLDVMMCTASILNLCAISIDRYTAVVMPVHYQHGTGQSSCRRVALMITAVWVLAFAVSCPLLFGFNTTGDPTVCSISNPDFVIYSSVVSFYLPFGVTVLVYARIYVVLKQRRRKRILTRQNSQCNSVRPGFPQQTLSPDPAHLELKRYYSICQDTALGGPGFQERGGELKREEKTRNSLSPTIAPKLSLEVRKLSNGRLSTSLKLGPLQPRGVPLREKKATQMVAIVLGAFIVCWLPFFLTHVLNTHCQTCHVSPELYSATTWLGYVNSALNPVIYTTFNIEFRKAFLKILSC
T1 sequence (P30542 whole entry): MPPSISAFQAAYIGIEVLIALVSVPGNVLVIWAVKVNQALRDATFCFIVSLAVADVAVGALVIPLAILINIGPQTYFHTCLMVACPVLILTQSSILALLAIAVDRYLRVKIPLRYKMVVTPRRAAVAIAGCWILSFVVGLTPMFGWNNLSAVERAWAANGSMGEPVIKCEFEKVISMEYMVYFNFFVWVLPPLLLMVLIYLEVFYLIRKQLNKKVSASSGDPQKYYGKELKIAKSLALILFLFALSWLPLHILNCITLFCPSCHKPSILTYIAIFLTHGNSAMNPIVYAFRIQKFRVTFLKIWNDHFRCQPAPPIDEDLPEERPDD
T3 sequence (P0DMS8 whole entry): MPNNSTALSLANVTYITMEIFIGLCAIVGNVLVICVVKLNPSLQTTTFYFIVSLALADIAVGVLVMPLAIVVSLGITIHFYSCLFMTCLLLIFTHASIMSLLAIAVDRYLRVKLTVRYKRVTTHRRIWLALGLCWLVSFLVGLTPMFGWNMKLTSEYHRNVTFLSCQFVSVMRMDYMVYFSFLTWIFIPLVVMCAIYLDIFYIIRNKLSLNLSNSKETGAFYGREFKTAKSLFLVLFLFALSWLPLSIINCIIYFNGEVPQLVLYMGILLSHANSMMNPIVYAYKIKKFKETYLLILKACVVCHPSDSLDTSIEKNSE
T14 sequence (P22303 32-614): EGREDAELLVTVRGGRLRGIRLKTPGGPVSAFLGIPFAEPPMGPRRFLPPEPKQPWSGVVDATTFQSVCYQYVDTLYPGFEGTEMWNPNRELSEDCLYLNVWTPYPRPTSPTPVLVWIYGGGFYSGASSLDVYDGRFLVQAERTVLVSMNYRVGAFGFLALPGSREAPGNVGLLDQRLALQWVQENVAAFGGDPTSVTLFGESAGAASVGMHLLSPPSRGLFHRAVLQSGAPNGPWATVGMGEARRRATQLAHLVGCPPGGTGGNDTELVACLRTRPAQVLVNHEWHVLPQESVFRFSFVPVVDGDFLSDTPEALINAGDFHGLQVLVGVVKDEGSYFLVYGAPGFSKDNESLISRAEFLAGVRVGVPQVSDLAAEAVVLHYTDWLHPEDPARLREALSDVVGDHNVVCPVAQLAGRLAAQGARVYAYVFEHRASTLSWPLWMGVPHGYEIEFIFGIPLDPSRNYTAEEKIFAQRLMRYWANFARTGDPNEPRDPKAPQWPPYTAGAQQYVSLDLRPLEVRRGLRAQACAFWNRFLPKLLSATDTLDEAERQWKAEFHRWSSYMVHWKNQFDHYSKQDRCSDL
T11 sequence (Q01959 whole entry): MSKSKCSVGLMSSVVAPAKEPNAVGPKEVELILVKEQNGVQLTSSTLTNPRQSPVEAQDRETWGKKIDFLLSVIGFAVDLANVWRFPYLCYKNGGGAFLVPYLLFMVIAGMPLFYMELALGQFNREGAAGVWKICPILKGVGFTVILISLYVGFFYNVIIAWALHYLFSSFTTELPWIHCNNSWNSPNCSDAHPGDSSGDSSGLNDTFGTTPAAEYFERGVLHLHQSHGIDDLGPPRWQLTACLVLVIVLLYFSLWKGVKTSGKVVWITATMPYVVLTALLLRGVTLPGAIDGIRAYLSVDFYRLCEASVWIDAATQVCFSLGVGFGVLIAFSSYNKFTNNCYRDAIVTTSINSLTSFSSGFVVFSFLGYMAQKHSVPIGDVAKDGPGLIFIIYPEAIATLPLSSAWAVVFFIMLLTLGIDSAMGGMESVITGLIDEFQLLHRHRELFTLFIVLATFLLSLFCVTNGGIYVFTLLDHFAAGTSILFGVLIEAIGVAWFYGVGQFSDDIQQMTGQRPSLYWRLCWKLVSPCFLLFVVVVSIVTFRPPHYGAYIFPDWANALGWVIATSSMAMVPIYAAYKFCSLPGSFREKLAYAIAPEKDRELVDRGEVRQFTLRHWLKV
T8 sequence (P25101 21-427): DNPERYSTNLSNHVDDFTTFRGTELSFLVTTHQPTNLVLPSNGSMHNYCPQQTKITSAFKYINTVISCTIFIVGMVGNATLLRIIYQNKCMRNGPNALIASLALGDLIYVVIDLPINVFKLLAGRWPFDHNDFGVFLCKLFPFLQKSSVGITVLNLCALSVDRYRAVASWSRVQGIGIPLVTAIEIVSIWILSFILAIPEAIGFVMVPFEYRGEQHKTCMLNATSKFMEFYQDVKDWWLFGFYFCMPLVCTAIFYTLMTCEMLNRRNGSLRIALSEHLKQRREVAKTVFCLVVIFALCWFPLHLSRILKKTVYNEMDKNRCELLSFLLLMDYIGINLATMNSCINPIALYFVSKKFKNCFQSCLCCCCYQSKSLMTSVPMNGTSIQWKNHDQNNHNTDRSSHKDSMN
T4 sequence (P34972 whole entry): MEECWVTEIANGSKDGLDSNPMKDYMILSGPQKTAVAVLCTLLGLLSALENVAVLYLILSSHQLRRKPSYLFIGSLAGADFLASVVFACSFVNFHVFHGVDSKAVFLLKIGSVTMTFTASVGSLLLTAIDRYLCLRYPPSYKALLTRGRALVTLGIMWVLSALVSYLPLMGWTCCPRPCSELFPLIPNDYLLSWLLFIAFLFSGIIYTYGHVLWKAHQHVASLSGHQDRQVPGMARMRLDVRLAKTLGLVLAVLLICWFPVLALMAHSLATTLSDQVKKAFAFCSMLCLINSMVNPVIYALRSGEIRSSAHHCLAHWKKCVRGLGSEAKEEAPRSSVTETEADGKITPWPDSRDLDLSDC
T5 sequence (P32239 whole entry): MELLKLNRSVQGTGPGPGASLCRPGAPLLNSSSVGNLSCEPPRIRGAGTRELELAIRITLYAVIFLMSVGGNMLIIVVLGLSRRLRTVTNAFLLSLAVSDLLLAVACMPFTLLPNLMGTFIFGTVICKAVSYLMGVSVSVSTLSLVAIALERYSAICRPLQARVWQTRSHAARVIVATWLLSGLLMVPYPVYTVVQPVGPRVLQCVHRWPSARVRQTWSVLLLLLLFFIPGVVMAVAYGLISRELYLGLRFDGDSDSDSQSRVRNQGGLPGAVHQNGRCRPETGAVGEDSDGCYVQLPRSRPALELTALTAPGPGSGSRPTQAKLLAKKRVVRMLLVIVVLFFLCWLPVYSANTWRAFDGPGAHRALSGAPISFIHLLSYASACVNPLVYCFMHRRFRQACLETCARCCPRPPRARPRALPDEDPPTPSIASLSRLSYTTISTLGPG

N#Cc1ccc2c(ccn2CCCCCB(O)O)c1 [Example 20, 5-(5-cyano-1H-indol-1-yl)pentylboronic acid]
inhibition at 10 µM (A1(h)): 7%
% Inhibition of Control Specific Binding (A2A(h)): 16%
inhibition at 10 µM (A3(h)): -12%
% Inhibition of Control Specific Binding (α1 (non-selective)): 21%
% Inhibition of Control Specific Binding (α2 (non-selective)): 7%
inhibition at 10 µM (CB2(h)): -12%
inhibition at 10 µM (CCKB(h) (CCK2)): 5%
inhibition at 10 µM (D1(h)): 0%
inhibition at 10 µM (D3(h)): 4%
inhibition at 10 µM (ETA(h)): -25%
inhibition at 10 µM (ETB(h)): 10%
% Inhibition of Control Specific Binding (GABA (non-selective)): −15%
% Inhibition of Control Specific Binding (NMDA): 19%
% Inhibition of Control Specific Binding (I1 (peripheral)): −6%
% Inhibition of Control Specific Binding (P2X): 14%
% Inhibition of Control Specific Binding (P2Y): −19%
% Inhibition of Control Specific Binding (Estrogen(h) (ER)): 3%
% Inhibition of Control Specific Binding (TRH): −17%
% Inhibition of Control Specific Binding [1]: −12%
% Inhibition of Control Specific Binding (K^+V channel): −5%
% Inhibition of Control Specific Binding (Na^+ channel (site 2)): 13%
inhibition at 10 µM (DA transporter(h)): 47%
inhibition at 10 µM (Choline transporter): 1%
inhibition at 10 µM (5-HT transporter(h)): 90%
% Inhibition of Control Values (Phosphodiesterase 3(h)): 95%
% Inhibition of Control Values (Acetylcholinesterase(h)): 11%
% Inhibition of Control Values (ATPase (Na^+/K^+)): 8%
